One experiment relates to otitis media. Kind of experiment: Treatment of otitis media in children (Example 1). The conditions noted are these: children with otitis media; nasal drops or nasal spray twice daily, 10^-7 to 10^-2 moles/liter, with antibiotic therapy. It is filed as in vivo, human. On the procedure:
Uridine 5′-triphosphate (UTP) is administered to children diagnosed with otitis media (OM). UTP is administered via nasal drops or nasal spray, twice daily, for a total of 5-10 days. The concentration of UTP is in the range of 10^−7 to 10^−2 moles/liter. Treatment with UTP begins as soon as OM is diagnosed and antibiotic therapy is initiated. The length of treatment for each patient is up to one month (28 days); the preferable length of treatment is one week (7 days). Effectiveness of UTP in eliminating middle ear fluid is assessed by several methods including: pneumatic otoscopy (to diagnose fluid in the middle ear and to evaluate the status of eardrum); tympanometry (to evaluate compliance of tympanic membrane/eardrum and to estimate middle ear pressure); acoustic reflectometry (to diagnose presence of air or fluid in the middle ear); and hearing evaluation tests.

Experiment [1] relates to lung epithelial cells of cystic fibrosis patients. To be noted: U.S. Pat. No. 5,292,498; cited from earlier work.
The subject of the next experiment is lung epithelial cells. The conditions noted are these: Boucher et al. 1995, Gheber et al. 1995; cited from earlier work.

Turning to `O=c1ccn([C@@H]2O[C@H](COP(=O)(O)OP(=O)(O)OP(=O)(O)O)[C@@H](O)[C@H]2O)c(=O)[nH]1` [UTP, uridine 5′-triphosphate], in the experiment on otitis media, the “number of days that middle ear fluid is present” value was “decrease in the number of days that middle ear fluid is present” and the “number of days that symptoms such as pain or hearing impairment are experienced” value is “decrease in the number of days that symptoms such as pain or hearing impairment are experienced”. Also, the “chloride and water secretion” value in experiment [1] was “induce chloride and water secretion”. For the same compound, the ciliary beat frequency result in the experiment with lung epithelial cells is “stimulate the ciliary beat frequency”.

Take `Nc1ncnc2c1ncn2[C@@H]1O[C@H](COP(=O)(O)OP(=O)(O)OP(=O)(O)O)[C@@H](O)[C@H]1O` [ATP, adenosine 5′-triphosphate]: the “chloride and water secretion” value in experiment [1] was “induce chloride and water secretion”. For the same compound, in the experiment on lung epithelial cells, the ciliary beat frequency result is “stimulate the ciliary beat frequency”.

The values are drawn from patent publication US6423694B1, “Method of treating otitis media with uridine triphosphates and related compounds” (Inspire Pharmaceuticals, Inc., priority 1996, dated 2002).
